Measurements as given in patent publication US8309721B2, “HSP90 inhibitory carbazole derivatives, compositions containing same and use thereof” (Sanofi, priority 2008, dated 2012).
Structures can show the parent of a compound that is named as a salt.

The molecules below were run on Her2 receptor expression at the surface of SKBr3 cells (assay: phenotypic SKBr3/HER2 cell test (Her2 surface expression by flow cytometry)). Conditions: Homo sapiens, SK-BR-3, 24 h incubation, inhibition of Her2 expression.
Type: cell-based
Procedure: The cellular activity of the compounds can in particular be evaluated by means of the phenotypic “SKBr3/HER2” cell test described below:
The SKBr3 […] adenocarcinoma cells, overexpressing the Her2 tyrosine kinase receptor, originate from the ATCC (HTB-30) and are cultured in McCoy's 5A medium supplemented with 10% FBS and 1% L-glutamine.
The cells are seeded in 12-well plates at a proportion of 125 000 cells per well in 1 ml of complete medium. The following day, the products are added at varying concentrations. After incubation for 24 h, the cells are trypsinized, washed with PBS and incubated with 100 ng of anti-Her2 antibody coupled to PE (Phycoerythrin) (BD 340552) for 30 minutes at 4° C. in the dark. The fluorescence due to the expression of the Her2 receptor at the surface of the cells is then read using a FACS Calibur flow cytometer (Becton-Dickinson). The percentage inhibition of Her2 expression as a function of the concentrations of product tested is fitted by the nonlinear regression technique (XLfit, equation 205) in order to measure an IC50 for each product.

SMILES | IC50
NC(=O)c1ccc(-n2c3ccccc3c3c(-c4nc5ccc(F)cc5[nH]4)cccc32)cc1N[C@@H]1CN2CCC1CC2 [Example 99, 2-{(S)-(1-azabicyclo[2.2.2]oct-3-yl)amino}-4-[4-(6-fluoro-1H-benzimidazol-2-yl)-9H-carbazol-9-yl]benzamide] | < 1 µM
CN1CCC(O)(CNc2cc(-n3c4ccccc4c4c(-c5nc6ccc(F)cc6[nH]5)cccc43)ccc2C(N)=O)CC1 [Example 102, [4-(6-fluoro-1H-benzimidazol-2-yl)-9H-carbazol-9-yl]-2-[(4-hydroxy-1-methylpiperidin-4-ylmethyl)amino]benzamide] | 1 to 10 µM
CN1CCC(O)(CNc2cc(-n3c4ccccc4c4c(-c5cnc6ccccc6c5)cccc43)ccc2C(N)=O)CC1 [Example 103, 2-[(4-hydroxy-1-methylpiperidin-4-ylmethyl)-amino]-[4-(quinolin-3-yl)-9H-carbazol-9-yl]benzamide] | < 1 µM
NC(=O)c1ccc(-n2c3ccccc3c3c(-c4nc5ccc(F)cc5[nH]4)cccc32)cc1NCc1cccnc1 [Example 104, 4-[4-(6-fluoro-1H-benzimidazol-2-yl)-9H-carbazol-9-yl]-2-[(pyridin-3-ylmethyl)amino]benzamide] | < 1 µM
NC(=O)c1ccc(-n2c3ccccc3c3c(-c4cnc5ccccc5c4)cccc32)cc1NCc1cccnc1 [Example 105, 2-[(pyridin-3-ylmethyl)amino]-4-[4-(quinolin-3-yl)-9H-carbazol-9-yl]benzamide] | < 1 µM
NC(=O)c1ccc(-n2c3ccccc3c3c(-c4nc5ccc(F)cc5[nH]4)cccc32)cc1NCCc1cccnc1 [Example 106, 4-[4-(6-fluoro-1H-benzimidazol-2-yl)-9H-carbazol-9-yl]-2-[2-(pyridin-3-yl)-ethylamino]benzamide] | < 1 µM
NC(=O)c1ccc(-n2c3ccccc3c3c(-c4cnc5ccccc5c4)cccc32)cc1NCCc1cccnc1 [Example 107, 2-[2-(pyridin-3-yl)ethylamino]-4-[4-(quinolin-3-yl)-9H-carbazol-9-yl]benzamide] | < 1 µM
NC(=O)c1ccc(-n2c3ccccc3c3c(-c4cnc5ccccc5c4)cccc32)cc1N[C@H]1CN2CCC1CC2 [Example 108, 2-((R)-(1-azabicyclo[2.2.2]oct-3-yl)amino)-4-[4-(quinolin-3-yl)-9H-carbazol-9-yl]benzamide] | < 1 µM
NC(=O)c1ccc(-n2c3ccccc3c3c(-c4cnc5ccccc5c4)cccc32)cc1NC1CCCC(O)C1 [Example 109, 2-(3(R,S)-hydroxycyclohexyl-1(R,S)-amino)-4-[4-(quinolin-3-yl)-9H-carbazol-9-yl]benzamide] | < 1 µM
Cn1cnc(CNc2cc(-n3c4ccccc4c4c(-c5nc6ccc(F)cc6[nH]5)cccc43)ccc2C(N)=O)c1 [Example 110, 4-[4-(6-fluoro-1H-benzimidazol-2-yl)-9H-carbazol-9-yl]-2-[(1-methyl-1H-imidazol-4-yl)methylamino]benzamide] | < 1 µM
NC(=O)c1ccc(-n2c3ccccc3c3c(-c4nc5ccc(F)cc5[nH]4)cccc32)cc1NCC1(O)CCCC1 [Example 111, 4-[4-(6-fluoro-1H-benzimidazol-2-yl)-9H-carbazol-9-yl]-2-[(1-hydroxycyclopentan-1-yl)methylamino]benzamide] | < 1 µM
NC(=O)c1ccc(-n2c3ccccc3c3c(-c4cnc5ccccc5c4)cccc32)cc1NC1CCOCC1 [Example 113] | < 1 µM
NC(=O)c1ccc(-n2c3ccccc3c3c(-c4nc5ccc(F)cc5[nH]4)cccc32)cc1NCC1(O)CC1 [Example 114, 4-[4-(6-fluoro-1H-benzimidazol-2-yl)-9H-carbazol-9-yl]-2-[(1-hydroxycyclopropan-1-yl)methylamino]benzamide] | < 1 µM
Cn1cc(CNc2cc(-n3c4ccccc4c4c(-c5nc6ccc(F)cc6[nH]5)cccc43)ccc2C(N)=O)cn1 [Example 115, 4-[4-(6-fluoro-1H-benzimidazol-2-yl)-9H-carbazol-9-yl]-2-[(1-methyl-1H-pyrazol-4-yl)methylamino]benzamide] | < 1 µM
NC(=O)c1ncc(-n2c3ccccc3c3c(-c4cnc5ccccc5c4)cccc32)cc1NC1CCOCC1 [Example 116] | < 1 µM
Cn1cnc(CCNc2cc(-n3c4ccccc4c4c(-c5nc6ccc(F)cc6[nH]5)cccc43)ccc2C(N)=O)c1 [Example 117, 4-[4-(6-fluoro-1H-benzimidazol-2-yl)-9H-carbazol-9-yl]-2-[(1-methyl-1H-imidazol-4-yl)ethylamino]benzamide] | < 1 µM
Cn1cc(CNc2cc(-n3c4ccccc4c4c(-c5cnc6ccccc6c5)cccc43)ccc2C(N)=O)cn1 [Example 119, 2-[(1-methyl-1H-pyrazol-4-yl)methylamino]-4-[4-(quinolin-3-yl)-9H-carbazol-9-yl]benzamide] | < 1 µM
NC(=O)c1ccc(-n2c3ccccc3c3c(-c4cnc5ccccc5c4)cccc32)cc1NCC1(O)CC1 [Example 121, 4-[4-(quinolin-3-yl)-9H-carbazol-9-yl]-2-[(1-hydroxycyclopropan-1-yl)methylamino]benzamide] | < 1 µM

SMILES | IC50
CN1C(C)(C)CC(Nc2cc(-n3c4ccccc4c4c(-c5cnc6ccccc6c5)cccc43)cnc2C(N)=O)CC1(C)C [Example 122] | < 1 µM
CC(C)(C)OC(=O)N1CCC(Nc2cc(-n3c4ccccc4c4c(-c5cnc6ccccc6c5)cccc43)ccc2C(N)=O)CC1 [Example 123] | 1 to 10 µM
NC(=O)c1ccc(-n2c3ccccc3c3c(-c4cnc5ccccc5c4)cccc32)cc1NC1CCNCC1 [Example 124, 2-(piperidin-4-ylamino)-4-[4-(quinolin-3-yl)-9H-carbazol-9-yl]benzamide hydrochloride] | < 1 µM
CC(C)(O)CCNc1cc(-n2c3ccccc3c3c(-c4ccc(C#N)nc4)cccc32)ccc1C(N)=O [Example 125, 4-[4-(6-cyanopyridin-3-yl)-9H-carbazol-9-yl]-2-[(3-hydroxy-3-methylbutyl)amino]benzamide] | < 1 µM
CN1C(C)(C)CC(Nc2cc(-n3c4ccccc4c4c(-c5ccc(C#N)nc5)cccc43)ccc2C(N)=O)CC1(C)C [Example 127, 4-[4-(6-cyanopyridin-3-yl)-9H-carbazol-9-yl]-2-[(1,2,2,6,6-pentamethylpiperidin-4-yl)amino]benzamide] | < 1 µM
NCC(=O)O[C@H]1CC[C@H](Nc2cc(-n3c4ccccc4c4c(-c5cnc6ccccc6c5)cccc43)cnc2C(N)=O)CC1 [Example 128, aminoacetic acid 4-trans-{[2-carbamoyl-5-(quinolin-3-yl)-9H-carbazol-9-yl]pyridin-3-ylamino}cyclohexyl ester] | < 1 µM
NC(=O)c1ncc(-n2c3ccccc3c3c(-c4cnc5ccccc5c4)cccc32)cc1NCCF [Example 129, 3-(2-fluoroethylamino)-5-[4-(quinolin-3-yl)-9H-carbazol-9-yl]pyridine-2-carboxamide] | < 1 µM
CC1(C)CC(Nc2cc(-n3c4ccccc4c4c(-c5cnc6ccccc6c5)cccc43)cnc2C(N)=O)CC(C)(C)N1 [Example 132, 5-[4-(quinolin-3-yl)-9H-carbazol-9-yl)-3-(2,2,6,6-tetramethylpiperidin-4-ylamino)pyridine-2-carboxamide] | 1 to 10 µM
NC(=O)c1ncc(-n2c3ccccc3c3c(-c4cnc5ccccc5c4)cccc32)cc1NCCc1ccccn1 [Example 133, 3-[(2-pyridin-2-yl)ethylamino)-5-[4-(quinolin-3-yl)-9H-carbazol-9-yl]pyridine-2-carboxamide] | < 1 µM
N#Cc1ccc(-c2cccc3c2c2ccccc2n3-c2ccc(C(N)=O)c(NCCF)c2)cn1 [Example 134, 4-[4-(6-cyanopyridin-3-yl)-9H-carbazol-9-yl]-2-[(2-fluoroethyl)amino]benzamide] | < 1 µM
CN1C2CCC1CC(Nc1cc(-n3c4ccccc4c4c(-c5ccc(C#N)nc5)cccc43)ccc1C(N)=O)C2 (centres unmarked) [Example 135, 4-[4-(6-cyanopyridin-3-yl)-9H-carbazol-9-yl]-2-[(8-methyl-8-azabicyclo[3.2.1]oct-3-yl)amino]benzamide] | < 1 µM
NC(=O)c1ncc(-n2c3ccccc3c3c(-c4nc5ccc(F)cc5[nH]4)cccc32)cc1NC1CCOCC1 [Example 136] | < 1 µM
NC(=O)c1cnc(-n2c3ccccc3c3c(-c4cnc5ccccc5c4)cccc32)cc1NC1CCOCC1 [Example 137] | < 1 µM
CC(C)(O)CNc1cc(-n2c3ccccc3c3c(-c4cnc5ccccc5c4)cccc32)cnc1C(N)=O [Example 139] | < 1 µM
CN(C)CC(=O)O[C@H]1CC[C@H](Nc2cc(-n3c4ccccc4c4c(-c5nc6ccc(F)cc6[nH]5)cccc43)ccc2C(N)=O)CC1 [Example 140, dimethylaminoacetic acid 4-trans-{2-carbamoyl-5-[4(6-fluoro-1H-benzimidazol-2-yl)carbazol-9-yl]phenylamino}cyclohexyl ester] | < 1 µM
NC(=O)c1ccc(-n2c3ccccc3c3c(-c4cncc(O)c4)cccc32)cc1NCCCO [Example 141, 2-[(3-hydroxypropyl)amino]-4-[4-(5-hydroxypyridin-3-yl)-9H-carbazol-9-yl]benzamide] | < 1 µM
NC(=O)c1cnc(-n2c3ccccc3c3c(-c4cnc5ccccc5c4)cccc32)cc1N[C@H]1CC[C@H](O)CC1 [Example 142, 2-[4-(quinolin-3-yl)-9H-carbazol-9-yl]-4-(4-trans-hydroxycyclohexylamino)pyridine-5-carboxamide] | < 1 µM
